Results from the NIST ThermoML archive (doi:10.1016/j.jct.2018.01.015).

Assay: xn = mol fraction of the nth substance listed
Details: Gas, rotating-body viscometer for gases

N#N [nitrogen] + O=C=O
Details | viscosity [mPa·s]
253.16 K, 203.1 kPa, x1 = 0.7498 | 0.01498
253.16 K, 399 kPa, x1 = 0.7498 | 0.01501
253.16 K, 601.1 kPa, x1 = 0.7498 | 0.01505
253.16 K, 797.1 kPa, x1 = 0.7498 | 0.01509
253.16 K, 998.4 kPa, x1 = 0.7498 | 0.01514
253.17 K, 100.3 kPa, x1 = 0.7498 | 0.01495
253.17 K, 108.1 kPa, x1 = 0.4996 | 0.01423
253.17 K, 200.4 kPa, x1 = 0.4996 | 0.01425
253.17 K, 398.3 kPa, x1 = 0.4996 | 0.01427
253.17 K, 596.2 kPa, x1 = 0.4996 | 0.01431
253.17 K, 798.8 kPa, x1 = 0.4996 | 0.01435
253.18 K, 110.4 kPa, x1 = 0.2479 | 0.01347
253.18 K, 203.7 kPa, x1 = 0.2479 | 0.01348
253.18 K, 396.3 kPa, x1 = 0.2479 | 0.01348
253.18 K, 605.2 kPa, x1 = 0.2479 | 0.01352
253.21 K, 100.8 kPa, x1 = 1 | 0.01561
253.21 K, 200.9 kPa, x1 = 1 | 0.01564
253.21 K, 400.7 kPa, x1 = 1 | 0.01566
253.21 K, 600.8 kPa, x1 = 1 | 0.01571
253.21 K, 800.8 kPa, x1 = 1 | 0.01574
253.21 K, 1000.9 kPa, x1 = 1 | 0.01579
253.21 K, 1200.9 kPa, x1 = 1 | 0.01584
273.19 K, 108.8 kPa, x1 = 0.7498 | 0.01597
273.19 K, 109.2 kPa, x1 = 0.4996 | 0.01525
273.19 K, 201 kPa, x1 = 0.7498 | 0.01599
273.19 K, 400.9 kPa, x1 = 0.4996 | 0.0153
273.19 K, 401.7 kPa, x1 = 0.7498 | 0.01602
273.19 K, 600.3 kPa, x1 = 0.7498 | 0.01605
273.19 K, 603.1 kPa, x1 = 0.4996 | 0.01533
273.19 K, 800.1 kPa, x1 = 0.4996 | 0.01537
273.19 K, 800.2 kPa, x1 = 0.7498 | 0.0161
273.19 K, 1000.1 kPa, x1 = 0.7498 | 0.01613
273.19 K, 1200.6 kPa, x1 = 0.7498 | 0.01619
273.2 K, 201.1 kPa, x1 = 0.2479 | 0.01448
273.2 K, 205.6 kPa, x1 = 0.4996 | 0.01527
273.2 K, 397.9 kPa, x1 = 0.2479 | 0.0145
273.2 K, 601.6 kPa, x1 = 0.2479 | 0.01453
273.2 K, 1004.5 kPa, x1 = 0.4996 | 0.01541
273.21 K, 108.1 kPa, x1 = 0.2479 | 0.01448
273.21 K, 793.9 kPa, x1 = 0.2479 | 0.01457
273.24 K, 100.7 kPa, x1 = 1 | 0.01659
273.24 K, 200.8 kPa, x1 = 1 | 0.01661
273.24 K, 400.5 kPa, x1 = 1 | 0.01664
273.24 K, 600.4 kPa, x1 = 1 | 0.01667
273.24 K, 800.6 kPa, x1 = 1 | 0.01671
273.24 K, 1000.6 kPa, x1 = 1 | 0.01674
273.24 K, 1499.8 kPa, x1 = 1 | 0.01685
298.19 K, 108.9 kPa, x1 = 0.7498 | 0.01719
298.19 K, 196.7 kPa, x1 = 0.7498 | 0.01721
298.19 K, 402.3 kPa, x1 = 0.7498 | 0.01724
298.19 K, 604.2 kPa, x1 = 0.7498 | 0.01727
298.19 K, 801 kPa, x1 = 0.7498 | 0.0173
298.19 K, 999.3 kPa, x1 = 0.7498 | 0.01734
298.19 K, 1498.4 kPa, x1 = 0.7498 | 0.01744
298.2 K, 202.6 kPa, x1 = 0.7498 | 0.0172
298.2 K, 390.5 kPa, x1 = 0.7498 | 0.01724
298.2 K, 599.6 kPa, x1 = 0.7498 | 0.01727
298.2 K, 807 kPa, x1 = 0.7498 | 0.0173
298.2 K, 1008.5 kPa, x1 = 0.7498 | 0.01734
298.2 K, 1501.4 kPa, x1 = 0.7498 | 0.01744
298.21 K, 108 kPa, x1 = 0.4996 | 0.0165
298.21 K, 108.7 kPa, x1 = 0.2479 | 0.01571
298.21 K, 109 kPa, x1 = 0.4996 | 0.01649
298.21 K, 109 kPa, x1 = 0.7498 | 0.01719
298.21 K, 201.9 kPa, x1 = 0.4996 | 0.01651
298.21 K, 204.7 kPa, x1 = 0.4996 | 0.0165
298.21 K, 205.2 kPa, x1 = 0.2479 | 0.01572
298.21 K, 395.1 kPa, x1 = 0.2479 | 0.01574
298.21 K, 399.1 kPa, x1 = 0.4996 | 0.01654
298.21 K, 402.3 kPa, x1 = 0.4996 | 0.01654
298.21 K, 593.4 kPa, x1 = 0.4996 | 0.01656
298.21 K, 602.9 kPa, x1 = 0.2479 | 0.01577
298.21 K, 603.8 kPa, x1 = 0.4996 | 0.01657
298.21 K, 800.9 kPa, x1 = 0.4996 | 0.0166
298.21 K, 803.6 kPa, x1 = 0.4996 | 0.01661
298.21 K, 807.6 kPa, x1 = 0.2479 | 0.01581
298.21 K, 1000 kPa, x1 = 0.4996 | 0.01664
298.21 K, 1002.4 kPa, x1 = 0.2479 | 0.01585
298.21 K, 1003.3 kPa, x1 = 0.4996 | 0.01664
298.21 K, 1202 kPa, x1 = 0.4996 | 0.0167
298.21 K, 1204.4 kPa, x1 = 0.4996 | 0.01669
298.22 K, 107.9 kPa, x1 = 0.2479 | 0.01571
298.22 K, 204.8 kPa, x1 = 0.2479 | 0.01572
298.22 K, 401.2 kPa, x1 = 0.2479 | 0.01575
298.22 K, 602.1 kPa, x1 = 0.2479 | 0.01578
298.22 K, 794.6 kPa, x1 = 0.2479 | 0.01581
298.22 K, 1003 kPa, x1 = 0.2479 | 0.01585
298.24 K, 800.5 kPa, x1 = 1 | 0.01785
298.25 K, 99.6 kPa, x1 = 1 | 0.01776
298.25 K, 100.7 kPa, x1 = 1 | 0.01777
298.25 K, 200.5 kPa, x1 = 1 | 0.01778
298.25 K, 400.7 kPa, x1 = 1 | 0.0178
298.25 K, 400.8 kPa, x1 = 1 | 0.0178
298.25 K, 600.2 kPa, x1 = 1 | 0.01783
298.25 K, 1000.1 kPa, x1 = 1 | 0.01789
298.25 K, 1500.2 kPa, x1 = 1 | 0.01799
323.2 K, 109.1 kPa, x1 = 0.7498 | 0.01837
323.2 K, 198.2 kPa, x1 = 0.7498 | 0.01838
323.2 K, 393.8 kPa, x1 = 0.7498 | 0.01841
323.2 K, 600.2 kPa, x1 = 0.7498 | 0.01844
323.2 K, 800.3 kPa, x1 = 0.7498 | 0.01847
323.2 K, 1000.9 kPa, x1 = 0.7498 | 0.0185
323.2 K, 1500.1 kPa, x1 = 0.7498 | 0.0186
323.22 K, 108.4 kPa, x1 = 0.2479 | 0.01691
323.22 K, 109.2 kPa, x1 = 0.4996 | 0.01769
323.22 K, 196.1 kPa, x1 = 0.2479 | 0.01693
